In paper PMC12454493, “Insight on novel sulfamoylphenyl pyrazole derivatives as anticancer carbonic anhydrase inhibitors” (Molecular Diversity, 2024):

What was measured:
Assay type in all cases: cell-based
[1] = tested on: EKVX; experiment: NCI-60 one-dose SRB screen (Non-Small Cell Lung Cancer); details: Homo sapiens, single dose 10 µM, 48 h, read-out: Growth inhibition percent (GI %)
Description: (§1) The National Cancer Institute (NCI) Developmental Therapeutic Program (www.dtp.nci.nih.gov) selected the 20 novel synthesized compounds 4a-e, 5a-e, 6a-c, 9a-e, 10 and 11 to test for their anticancer activity at a single dose of 10 µM using SRB assay. […] Supplementary Data S3; Table S1 presents the detailed screening results of the most promising compounds. The preliminary screening’s detailed results for the remaining compounds are elucidated in the (Supplementary Data S3; Table S2).
(§2) The guidelines of the Drug Evaluation Branch’s protocol at the NCI in Bethesda served as the basis for the in vitro anticancer screening assays. at one dose 10 µM against a panel of 60 cancer cell lines. The human tumor cell lines used belonged to nine panels: leukemia, melanoma, lung, colon, CNS, ovarian, renal, prostate and breast cancers using the sulforhodamine B (SRB) assay in a 48 h drug exposure protocol.

[2] = tested on: NCI-H322M; experiment: as above; details: Homo sapiens, single dose 10 µM, 48 h, read-out: Growth inhibition percent (GI %)
Description: as §1, §2

[3] = tested on: NCI-H23; experiment: as above; details: Homo sapiens, single dose 10 µM, 48 h, read-out: Growth inhibition percent (GI %)
Description: as §1, §2

[4] = tested on: NCI-H226; experiment: as above; details: Homo sapiens, single dose 10 µM, 48 h, read-out: Growth inhibition percent (GI %)
Description: as §1, §2

[5] = tested on: A549/ATCC; experiment: as above; details: Homo sapiens, single dose 10 µM, 48 h, read-out: Growth inhibition percent (GI %)
Description: as §1, §2

[6] = tested on: NCI-H522; experiment: as above; details: Homo sapiens, single dose 10 µM, 48 h, read-out: Growth inhibition percent (GI %)
Description: as §1, §2

[7] = tested on: NCI-H460; experiment: as above; details: Homo sapiens, single dose 10 µM, 48 h, read-out: Growth inhibition percent (GI %)
Description: as §1, §2

[8] = tested on: HOP-62; experiment: as above; details: Homo sapiens, single dose 10 µM, 48 h, read-out: Growth inhibition percent (GI %)
Description: as §1, §2

[9] = tested on: HOP-92; experiment: as above; details: Homo sapiens, single dose 10 µM, 48 h, read-out: Growth inhibition percent (GI %)
Description: as §1, §2

[10] = tested on: OVCAR-4; experiment: NCI-60 one-dose SRB screen (Ovarian cancer); details: Homo sapiens, single dose 10 µM, 48 h, read-out: Growth inhibition percent (GI %)
Description: as §1, §2

[11] = tested on: OVCAR-3; experiment: NCI-60 one-dose SRB screen (Ovarian cancer); details: Homo sapiens, single dose 10 µM, 48 h, read-out: Growth inhibition percent (GI %)
Description: as §1, §2

[12] = tested on: IGROV1; experiment: NCI-60 one-dose SRB screen (Ovarian cancer); details: Homo sapiens, IGROV-1, single dose 10 µM, 48 h, read-out: Growth inhibition percent (GI %)
Description: as §1, §2

[13] = tested on: OVCAR-5; experiment: NCI-60 one-dose SRB screen (Ovarian cancer); details: Homo sapiens, single dose 10 µM, 48 h, read-out: Growth inhibition percent (GI %)
Description: as §1, §2

[14] = tested on: OVCAR-8; experiment: NCI-60 one-dose SRB screen (Ovarian cancer); details: Homo sapiens, single dose 10 µM, 48 h, read-out: Growth inhibition percent (GI %)
Description: as §1, §2

[15] = tested on: SK-OV-3; experiment: NCI-60 one-dose SRB screen (Ovarian cancer); details: Homo sapiens, single dose 10 µM, 48 h, read-out: Growth inhibition percent (GI %)
Description: as §1, §2

[16] = tested on: COLO 205; experiment: NCI-60 one-dose SRB screen (Colon Cancer); details: Homo sapiens, single dose 10 µM, 48 h, read-out: Growth inhibition percent (GI %)
Description: as §1, §2

[17] = tested on: SW-620; experiment: NCI-60 one-dose SRB screen (Colon Cancer); details: Homo sapiens, single dose 10 µM, 48 h, read-out: Growth inhibition percent (GI %)
Description: as §1, §2

[18] = tested on: HCT-15; experiment: NCI-60 one-dose SRB screen (Colon Cancer); details: Homo sapiens, single dose 10 µM, 48 h, read-out: Growth inhibition percent (GI %)
Description: as §1, §2

[19] = tested on: KM12; experiment: NCI-60 one-dose SRB screen (Colon Cancer); details: Homo sapiens, single dose 10 µM, 48 h, read-out: Growth inhibition percent (GI %)
Description: as §1, §2

[20] = tested on: HCT-116; experiment: NCI-60 one-dose SRB screen (Colon Cancer); details: Homo sapiens, single dose 10 µM, 48 h, read-out: Growth inhibition percent (GI %)
Description: as §1, §2

[21] = tested on: HT29; experiment: NCI-60 one-dose SRB screen (Colon Cancer); details: Homo sapiens, HT-29, single dose 10 µM, 48 h, read-out: Growth inhibition percent (GI %)
Description: as §1, §2

[22] = tested on: HCC-2998; experiment: NCI-60 one-dose SRB screen (Colon Cancer); details: Homo sapiens, single dose 10 µM, 48 h, read-out: Growth inhibition percent (GI %)
Description: as §1, §2

[23] = tested on: RXF 393; experiment: NCI-60 one-dose SRB screen (Renal Cancer); details: Homo sapiens, single dose 10 µM, 48 h, read-out: Growth inhibition percent (GI %)
Description: as §1, §2

[24] = tested on: SN12C; experiment: NCI-60 one-dose SRB screen (Renal Cancer); details: Homo sapiens, single dose 10 µM, 48 h, read-out: Growth inhibition percent (GI %)
Description: as §1, §2

[25] = tested on: 786-0; experiment: NCI-60 one-dose SRB screen (Renal Cancer); details: Homo sapiens, single dose 10 µM, 48 h, read-out: Growth inhibition percent (GI %)
Description: as §1, §2

[26] = tested on: TK-10; experiment: NCI-60 one-dose SRB screen (Renal Cancer); details: Homo sapiens, single dose 10 µM, 48 h, read-out: Growth inhibition percent (GI %)
Description: as §1, §2

[27] = tested on: UO-31; experiment: NCI-60 one-dose SRB screen (Renal Cancer); details: Homo sapiens, single dose 10 µM, 48 h, read-out: Growth inhibition percent (GI %)
Description: as §1, §2

[28] = tested on: ACHN; experiment: NCI-60 one-dose SRB screen (Renal Cancer); details: Homo sapiens, single dose 10 µM, 48 h, read-out: Growth inhibition percent (GI %)
Description: as §1, §2

[29] = tested on: CAKI-1; experiment: NCI-60 one-dose SRB screen (Renal Cancer); details: Homo sapiens, single dose 10 µM, 48 h, read-out: Growth inhibition percent (GI %)
Description: as §1, §2

Compound: NS(=O)(=O)c1ccc(NC(=O)COC(=O)c2cn(-c3ccc(S(N)(=O)=O)cc3)nc2-c2ccccc2)cc1 [Compound 4a, 2-Oxo-2-[(4-sulfamoylphenyl)amino] ethyl 3-phenyl-1-(4-sulfamoylphenyl)-1H-pyrazole-4-carboxylate]
- inhibition at 10 µM [1]: < 5%
- inhibition at 10 µM [2]: < 5%
- inhibition at 10 µM [3]: < 5%
- inhibition at 10 µM [4]: < 5%
- inhibition at 10 µM [5]: < 5%
- inhibition at 10 µM [6]: < 5%
- inhibition at 10 µM [7]: < 5%
- inhibition at 10 µM [8]: < 5%
- inhibition at 10 µM [9]: < 5%
- inhibition at 10 µM [10]: < 5%
- inhibition at 10 µM [11]: < 5%
- inhibition at 10 µM [12]: < 5%
- inhibition at 10 µM [13]: < 5%
- inhibition at 10 µM [14]: < 5%
- inhibition at 10 µM [15]: < 5%
- inhibition at 10 µM [16]: < 5%
- inhibition at 10 µM [17]: < 5%
- inhibition at 10 µM [18]: < 5%
- inhibition at 10 µM [19]: < 5%
- inhibition at 10 µM [20]: 27.8%
- inhibition at 10 µM [21]: < 5%
- inhibition at 10 µM [22]: < 5%
- inhibition at 10 µM [23]: < 5%
- inhibition at 10 µM [24]: < 5%
- inhibition at 10 µM [25]: 31.2%
- inhibition at 10 µM [26]: < 5%
- inhibition at 10 µM [27]: 15%
- inhibition at 10 µM [28]: < 5%
- inhibition at 10 µM [29]: 11.6%
